In patent US20230144619A1, “SALT OF ARYLAMINOPURINE DERIVATIVE, PREPARATION METHOD THEREFOR AND USE THEREOF” (CSPC Zhongqi Pharmaceutical Technology (Shijiazhuang) Co., …, priority 2020, published 2023):
Structures can show the parent of a compound that is named as a salt.

Experiments:
[1] = Solubility test (UV spectrophotometer, saturated solutions shaken 24 hours); format: physicochemical; details: 25° C.
Protocol: Detection instrument: Ultraviolet spectrophotometer/Evolution 300
The following solutions with pH=1.2, pH=4.5, and pH=6.8 and water were used as the solvent, and the solvent preparation process was as follows:
(1) pH=1.2 hydrochloric acid solution: To 7.65 mL of hydrochloric acid was added 1000 mL of water, and the mixture was shaken uniformly to obtain the target solution.
(2) pH=4.5 phosphate buffer solution: 6.8 g of potassium dihydrogen phosphate was taken and diluted with water to 1000 mL, and the mixture was shaken uniformly to obtain the target solution.
(2) pH=6.8 phosphate buffer solution: 6.8 g of potassium dihydrogen phosphate and 0.896 g of sodium hydroxide were taken and diluted with water to 1000 mL, and the mixture was shaken uniformly to obtain the target solution.
(4) Water: purified water
Test tubes with stopper were taken, and 10 mL of dissolution media at various pH values were precisely added to the test tubes respectively, and excessive stock drugs were added until supersaturated solutions were formed. The adding amounts were recorded. The solutions were shaken uniformly, sealed with stoppers, and shaken for 24 hours in a shaker. 2 mL of solutions were taken out at different time points respectively, and centrifuged. The resulting supernatants were taken, filtered, and the subsequent filtrates were taken for later use.
The above-mentioned saturated solutions in different solvents were taken, and solvents were added to dilute the solutions to certain volumes. The absorbances were measured at a wavelength of 287 nm.
Preparation of a solution of the reference substance: an appropriate amount of the compound represented by Formula 1 was taken as the reference substance, and precisely weighed. A solvent was added to dissolve and dilute the reference compound to produce a solution containing about 10 μg of the compound represented by Formula 1 per 1 mL. The absorbance was measured at a wavelength of 287 nm to calculate the solubility.
The salts obtained in Examples 1 and 3-17 and the compound represented by Formula 1 were subjected to the solubility test in media and the test results were shown in the following table: […]

DSC and TGA tests = format: physicochemical; details: onset temperature
Protocol: 6. Differential Scanning Calorimetry-Thermogravimetric Analysis (DSC-TGA)
Detection instrument: NETZSCH STA 449F3
Temperature range: 20° C.-350° C.;
Heating rate: 10.0 (K/min);
7. Differential Scanning Calorimetry (DSC)
Detection instrument: NETZSCH DSC 214 Polyma
Temperature range: 20° C.-250° C.;
Heating rate: 5.0 (K/min);
8. Thermogravimetric Analysis (TGA)
Detection instrument: METTLER and SDT Q600
The salts obtained in Examples 1 and 3-17 and the compound represented by Formula 1 were subjected to the DSC and TGA tests in media, and the test results were shown in the following table: […]

ALK = ALK (Homo sapiens, UniProt Q9UM73); assay: Kinase inhibitory activity test (per WO2011/147066); format: biochemical; details: result in words
Protocol: (§1) The salt sample obtained from Example 1 was tested according to the kinase inhibitory activity test described in the biological assessment of the patent application WO2011/147066.

Abl(h) = Abl(h) (Homo sapiens, UniProt P00519); assay: as above; format: biochemical
Protocol: as §1

BTK = BTK (Homo sapiens, UniProt Q06187); assay: as above; format: biochemical; details: result in words
Protocol: as §1

FGFRl(h) = FGFRl(h) (Homo sapiens, UniProt P11362); assay: as above; format: biochemical
Protocol: as §1

FLT3(h) = FLT3(h) (Homo sapiens, UniProt P36888); assay: as above; format: biochemical
Protocol: as §1

FLT3-ITD(h) = FLT3-ITD(h) (Homo sapiens, UniProt P36888); assay: as above; format: biochemical
Protocol: as §1

Fyn(h) = Fyn(h) (Homo sapiens, UniProt P06241); assay: as above; format: biochemical
Protocol: as §1

Hck(h) = Hck(h) (Homo sapiens, UniProt P08631); assay: as above; format: biochemical
Protocol: as §1

KDR(h) = KDR(h) (Homo sapiens, UniProt P35968); assay: as above; format: biochemical
Protocol: as §1

Lck(h) = Lck(h) (Homo sapiens, UniProt P06239); assay: as above; format: biochemical
Protocol: as §1

Lyn(h) = Lyn(h) (Homo sapiens, UniProt P07948); assay: as above; format: biochemical
Protocol: as §1

MET = MET (Homo sapiens, UniProt P08581); assay: as above; format: biochemical; details: result in words
Protocol: as §1

PDGFRα = PDGFRα (Homo sapiens, UniProt P16234); assay: as above; format: biochemical; details: result in words
Protocol: as §1

Ret(h) = Ret(h) (Homo sapiens, UniProt P07949); assay: as above; format: biochemical
Protocol: as §1

VEGFR2 = VEGFR2 (Homo sapiens, UniProt P35968); assay: as above; format: biochemical; details: VEGFR2, result in words
Protocol: as §1

Yes = Yes (Homo sapiens, UniProt P07947); assay: as above; format: biochemical
Protocol: as §1

c-KIT = c-KIT (Homo sapiens, UniProt P10721); assay: as above; format: biochemical; details: result in words
Protocol: as §1

c-SRC(h) = c-SRC(h) (Homo sapiens, UniProt P12931); assay: as above; format: biochemical
Protocol: as §1

Chain of Lck(h) (P06239 whole entry): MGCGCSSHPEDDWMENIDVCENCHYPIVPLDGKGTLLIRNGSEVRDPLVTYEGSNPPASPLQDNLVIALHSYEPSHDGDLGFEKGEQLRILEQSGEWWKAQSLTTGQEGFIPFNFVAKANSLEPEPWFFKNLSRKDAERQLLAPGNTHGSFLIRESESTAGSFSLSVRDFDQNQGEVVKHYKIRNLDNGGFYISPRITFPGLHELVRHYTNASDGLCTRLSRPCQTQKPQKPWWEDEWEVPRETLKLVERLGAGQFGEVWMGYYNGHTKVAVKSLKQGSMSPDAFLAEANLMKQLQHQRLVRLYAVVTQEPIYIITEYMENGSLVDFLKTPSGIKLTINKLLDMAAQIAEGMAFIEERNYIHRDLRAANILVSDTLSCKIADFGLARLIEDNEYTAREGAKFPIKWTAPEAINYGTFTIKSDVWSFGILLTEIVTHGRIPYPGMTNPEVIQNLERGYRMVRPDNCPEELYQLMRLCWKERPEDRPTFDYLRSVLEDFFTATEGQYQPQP
Chain of Lyn(h) (P07948 whole entry): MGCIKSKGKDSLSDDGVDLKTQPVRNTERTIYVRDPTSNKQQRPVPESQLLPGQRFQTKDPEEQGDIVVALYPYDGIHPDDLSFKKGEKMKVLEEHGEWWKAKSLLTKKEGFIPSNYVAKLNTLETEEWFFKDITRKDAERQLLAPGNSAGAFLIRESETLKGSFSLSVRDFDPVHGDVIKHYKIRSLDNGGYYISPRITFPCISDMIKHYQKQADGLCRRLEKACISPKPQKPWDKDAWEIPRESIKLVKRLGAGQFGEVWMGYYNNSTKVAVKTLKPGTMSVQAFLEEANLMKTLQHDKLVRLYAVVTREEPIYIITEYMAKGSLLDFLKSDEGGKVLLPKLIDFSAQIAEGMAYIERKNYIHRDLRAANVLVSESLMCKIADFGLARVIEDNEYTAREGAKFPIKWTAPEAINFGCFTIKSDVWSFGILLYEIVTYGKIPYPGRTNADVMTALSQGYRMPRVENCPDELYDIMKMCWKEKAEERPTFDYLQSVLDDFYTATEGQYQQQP
Chain of c-SRC(h) (P12931 whole entry): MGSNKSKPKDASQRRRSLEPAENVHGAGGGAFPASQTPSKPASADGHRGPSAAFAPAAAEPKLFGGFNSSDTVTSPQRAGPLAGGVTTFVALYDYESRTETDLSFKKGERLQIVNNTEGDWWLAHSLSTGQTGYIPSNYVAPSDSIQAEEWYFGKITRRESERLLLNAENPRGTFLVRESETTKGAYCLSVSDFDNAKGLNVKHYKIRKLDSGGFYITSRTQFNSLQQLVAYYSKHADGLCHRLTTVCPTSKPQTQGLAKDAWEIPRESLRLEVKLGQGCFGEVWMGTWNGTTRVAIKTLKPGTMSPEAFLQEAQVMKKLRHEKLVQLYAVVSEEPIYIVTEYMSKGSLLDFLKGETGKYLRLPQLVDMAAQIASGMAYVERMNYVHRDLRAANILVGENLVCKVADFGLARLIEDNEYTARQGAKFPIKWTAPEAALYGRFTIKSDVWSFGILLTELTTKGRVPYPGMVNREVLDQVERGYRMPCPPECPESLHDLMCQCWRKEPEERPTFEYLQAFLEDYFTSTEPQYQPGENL
Chain of Fyn(h) (P06241 whole entry): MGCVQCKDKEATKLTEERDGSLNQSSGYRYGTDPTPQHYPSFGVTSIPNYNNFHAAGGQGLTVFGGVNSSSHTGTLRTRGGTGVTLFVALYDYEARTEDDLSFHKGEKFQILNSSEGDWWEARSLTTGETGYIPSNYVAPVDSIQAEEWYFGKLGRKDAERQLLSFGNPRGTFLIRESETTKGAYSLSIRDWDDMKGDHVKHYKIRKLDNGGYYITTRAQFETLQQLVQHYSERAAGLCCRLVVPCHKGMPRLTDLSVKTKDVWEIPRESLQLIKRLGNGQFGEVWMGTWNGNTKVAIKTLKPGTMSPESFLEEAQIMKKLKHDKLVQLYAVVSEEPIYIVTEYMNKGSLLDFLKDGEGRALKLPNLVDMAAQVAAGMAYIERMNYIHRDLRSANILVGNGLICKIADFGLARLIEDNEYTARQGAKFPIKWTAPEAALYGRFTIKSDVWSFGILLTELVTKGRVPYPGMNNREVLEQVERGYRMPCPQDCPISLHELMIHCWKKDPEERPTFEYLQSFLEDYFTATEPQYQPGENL
Chain of FLT3(h) (P36888 27-993): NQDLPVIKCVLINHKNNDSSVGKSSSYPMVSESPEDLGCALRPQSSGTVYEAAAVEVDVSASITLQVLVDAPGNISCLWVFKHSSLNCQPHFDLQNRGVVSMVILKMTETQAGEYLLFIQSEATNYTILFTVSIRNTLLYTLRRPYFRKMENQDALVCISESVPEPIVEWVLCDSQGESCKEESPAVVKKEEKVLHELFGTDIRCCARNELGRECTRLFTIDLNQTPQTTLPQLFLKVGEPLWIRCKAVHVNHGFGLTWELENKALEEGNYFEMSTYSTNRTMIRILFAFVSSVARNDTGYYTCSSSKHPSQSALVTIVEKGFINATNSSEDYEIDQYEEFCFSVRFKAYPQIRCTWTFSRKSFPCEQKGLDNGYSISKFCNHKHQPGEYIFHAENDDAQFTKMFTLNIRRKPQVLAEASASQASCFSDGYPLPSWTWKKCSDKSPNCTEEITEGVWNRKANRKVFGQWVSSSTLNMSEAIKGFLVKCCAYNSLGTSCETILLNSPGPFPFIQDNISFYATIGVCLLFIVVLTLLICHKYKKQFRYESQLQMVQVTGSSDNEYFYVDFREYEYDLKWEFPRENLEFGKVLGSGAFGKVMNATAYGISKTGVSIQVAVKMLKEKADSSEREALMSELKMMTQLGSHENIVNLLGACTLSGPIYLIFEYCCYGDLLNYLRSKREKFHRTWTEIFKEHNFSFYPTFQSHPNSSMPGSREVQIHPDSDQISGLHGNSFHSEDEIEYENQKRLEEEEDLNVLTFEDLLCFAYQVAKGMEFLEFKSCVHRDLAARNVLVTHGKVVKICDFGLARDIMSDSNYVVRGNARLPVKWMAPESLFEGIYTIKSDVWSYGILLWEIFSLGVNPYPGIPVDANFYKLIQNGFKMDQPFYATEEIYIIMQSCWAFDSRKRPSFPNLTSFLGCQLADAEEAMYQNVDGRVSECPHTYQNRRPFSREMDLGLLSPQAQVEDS
Chain of c-KIT (P10721 26-976): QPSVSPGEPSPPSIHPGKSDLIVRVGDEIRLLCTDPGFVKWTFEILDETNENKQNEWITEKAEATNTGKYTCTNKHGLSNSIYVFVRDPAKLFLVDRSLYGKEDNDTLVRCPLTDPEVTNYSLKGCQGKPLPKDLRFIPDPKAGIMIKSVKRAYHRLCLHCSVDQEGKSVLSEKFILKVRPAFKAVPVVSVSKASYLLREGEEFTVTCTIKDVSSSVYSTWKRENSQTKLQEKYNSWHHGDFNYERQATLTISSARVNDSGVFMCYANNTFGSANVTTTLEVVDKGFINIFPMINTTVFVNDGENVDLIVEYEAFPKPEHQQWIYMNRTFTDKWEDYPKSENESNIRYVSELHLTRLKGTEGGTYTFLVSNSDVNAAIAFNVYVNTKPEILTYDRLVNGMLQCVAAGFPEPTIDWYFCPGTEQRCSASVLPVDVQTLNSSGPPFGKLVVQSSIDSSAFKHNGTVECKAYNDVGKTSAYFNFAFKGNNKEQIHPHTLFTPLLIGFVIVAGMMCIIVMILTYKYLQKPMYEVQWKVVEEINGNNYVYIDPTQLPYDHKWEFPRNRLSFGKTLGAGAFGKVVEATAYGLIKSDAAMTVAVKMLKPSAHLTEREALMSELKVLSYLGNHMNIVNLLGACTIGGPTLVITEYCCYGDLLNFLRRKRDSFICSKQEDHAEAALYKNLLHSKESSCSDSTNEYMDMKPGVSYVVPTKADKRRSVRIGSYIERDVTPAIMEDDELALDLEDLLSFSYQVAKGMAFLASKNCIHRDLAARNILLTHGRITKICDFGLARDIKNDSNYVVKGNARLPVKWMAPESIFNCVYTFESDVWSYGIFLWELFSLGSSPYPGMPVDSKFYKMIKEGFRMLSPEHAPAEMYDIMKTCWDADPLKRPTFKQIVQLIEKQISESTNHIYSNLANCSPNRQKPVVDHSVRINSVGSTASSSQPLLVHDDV
Chain of PDGFRα (P16234 24-1089): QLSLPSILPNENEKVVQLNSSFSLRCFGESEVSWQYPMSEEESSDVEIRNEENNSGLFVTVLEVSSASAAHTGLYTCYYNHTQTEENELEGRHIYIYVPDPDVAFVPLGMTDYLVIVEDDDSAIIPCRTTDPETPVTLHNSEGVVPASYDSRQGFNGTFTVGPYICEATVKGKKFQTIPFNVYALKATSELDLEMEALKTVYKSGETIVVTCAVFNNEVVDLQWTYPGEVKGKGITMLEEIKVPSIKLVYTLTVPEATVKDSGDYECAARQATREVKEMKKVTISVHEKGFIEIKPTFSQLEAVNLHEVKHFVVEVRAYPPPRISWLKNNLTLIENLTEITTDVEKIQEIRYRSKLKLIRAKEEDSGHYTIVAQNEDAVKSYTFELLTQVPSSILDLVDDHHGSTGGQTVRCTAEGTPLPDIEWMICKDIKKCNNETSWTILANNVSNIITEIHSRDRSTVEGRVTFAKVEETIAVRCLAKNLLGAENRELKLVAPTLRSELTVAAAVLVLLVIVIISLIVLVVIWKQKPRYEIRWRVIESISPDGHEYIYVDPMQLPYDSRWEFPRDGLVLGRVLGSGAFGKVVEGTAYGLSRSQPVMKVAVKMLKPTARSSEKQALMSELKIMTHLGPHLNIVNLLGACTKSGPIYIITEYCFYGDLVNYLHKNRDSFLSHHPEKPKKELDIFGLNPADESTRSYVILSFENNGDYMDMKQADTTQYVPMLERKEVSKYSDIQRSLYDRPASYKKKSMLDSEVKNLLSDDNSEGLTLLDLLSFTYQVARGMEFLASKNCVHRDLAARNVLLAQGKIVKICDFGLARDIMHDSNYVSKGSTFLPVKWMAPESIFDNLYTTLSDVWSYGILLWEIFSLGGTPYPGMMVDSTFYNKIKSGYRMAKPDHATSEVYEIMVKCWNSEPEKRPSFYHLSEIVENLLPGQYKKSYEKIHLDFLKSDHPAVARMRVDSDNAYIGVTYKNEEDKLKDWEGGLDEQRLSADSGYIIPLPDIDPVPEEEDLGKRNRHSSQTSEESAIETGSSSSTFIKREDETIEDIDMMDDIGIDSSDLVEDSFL

SMILES: CC(C)n1c(Nc2cccnc2)nc2cnc(Nc3ccc(N4CCN(C)CC4)cc3)nc21 [Example 1, arylaminopurine derivative.trihydrochloride.pentahydrate]
- Solubility, Water medium pH = 1.2 ([1]; pH=1.2 hydrochloric acid solution): 33.89 mg/mL
- Solubility, Water medium pH = 4.5 ([1]; pH=4.5 phosphate buffer solution): 47.27 mg/mL
- Solubility, Water medium pH = 6.8 ([1]; pH=6.8 phosphate buffer solution): 50.62 mg/mL
- Solubility, Water medium ([1]; water (purified water)): 40.41 mg/mL
- TGA: starting to lose the acid (DSC and TGA tests): ~140 °C (see FIG. 19)
- TGA: starting to lose the water of crystallization (DSC and TGA tests): crystallization at about 40° C.;
- inhibition of kinase activity (ALK): could inhibit the activities
- IC50 (Abl(h)): 25 nM
- inhibition of kinase activity (BTK): could inhibit the activities
- IC50 (FGFRl(h)): 247 nM
- IC50 (FLT3(h)): 26 nM
- IC50 (FLT3-ITD(h)): 3 to 10 nM
- IC50 (Fyn(h)): 34 nM
- IC50 (Hck(h)): 93 nM
- IC50 (KDR(h)): 323 nM
- IC50 (Lck(h)): 37 nM
- IC50 (Lyn(h)): 7 nM
- inhibition of kinase activity (MET): could inhibit the activities
- inhibition of kinase activity (PDGFRα): could inhibit the activities
- IC50 (Ret(h)): 10 nM
- inhibition of kinase activity (VEGFR2): could inhibit the activities
- IC50 (Yes): 4 nM
- inhibition of kinase activity (c-KIT): could inhibit the activities
- IC50 (c-SRC(h)): 176 nM
